Experimental data taken from the supplement of paper PMC10307832.

Key:
Assay in all cases: relative viability (nuclei count vs DMSO), 5 days (fraction); higher = more cells survive
ABC-1 = test system: ABC-1
Procedure, shortened: (§1)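 Cells from lung cancer lines were seeded into 1536-well plates and, one day later, dosed by pin tool. Treatments were either a single drug or a fixed dose of an anchor drug with five library-drug doses (not always all listed) in √10 steps. After 5 days, nuclei were stained in a one-step fixation (final 0.05% Triton X-100, 1% formaldehyde, 1 ug/ml Hoechst) and counted on 4× images, and relative viability is the treated-to-vehicle nuclei ratio, as the median of duplicate plates.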

CAL-12T = test system: CAL-12T
Procedure, shortened: as §1

COR-L 105 = test system: COR-L 105
Procedure, shortened: as §1

ChaGo-K-1 = test system: ChaGo-K-1
Procedure, shortened: as §1

EMC-BAC-2 = test system: EMC-BAC-2
Procedure, shortened: as §1

EPLC-272H = test system: EPLC-272H
Procedure, shortened: as §1

HCC-15 = test system: HCC-15
Procedure, shortened: as §1

HOP-62 = test system: HOP-62
Procedure, shortened: as §1

LXF-289 = test system: LXF-289
Procedure, shortened: as §1

NCI-H1666 = test system: NCI-H1666
Procedure, shortened: as §1

NCI-H1755 = test system: NCI-H1755
Procedure, shortened: as §1

NCI-H1915 = test system: NCI-H1915
Procedure, shortened: as §1

NCI-H1975 = test system: NCI-H1975
Procedure, shortened: as §1

NCI-H1993 = test system: NCI-H1993
Procedure, shortened: as §1

NCI-H2023 = test system: NCI-H2023
Procedure, shortened: as §1

NCI-H2085 = test system: NCI-H2085
Procedure, shortened: as §1

NCI-H2126 = test system: NCI-H2126
Procedure, shortened: as §1

NCI-H3122 = test system: NCI-H3122
Procedure, shortened: as §1

NCI-H322M = test system: NCI-H322M
Procedure, shortened: as §1

NCI-H358 = test system: NCI-H358
Procedure, shortened: as §1

NCI-H441 = test system: NCI-H441
Procedure, shortened: as §1

UMC-11 = test system: UMC-11
Procedure, shortened: as §1

## O=C(O)c1ccc(-c2c[nH]c3ncc(-c4ccccc4)cc23)cc1C1CCCC1 + CCNC(=O)c1noc(-c2cc(C(C)C)c(O)cc2O)c1-c1ccc(CN2CCOCC2)cc1 [Luminespib] (partner 0.01 µM)
ABC-1; first compound 0.1265 µM
  relative viability: 0.572
ABC-1; first compound 1.265 µM
  relative viability: 0.509
CAL-12T; first compound 0.04 µM
  relative viability: 0.57
CAL-12T; first compound 0.1265 µM
  relative viability: 0.354
CAL-12T; first compound 0.4 µM
  relative viability: 0.519
CAL-12T; first compound 1.265 µM
  relative viability: 0.268
COR-L 105; first compound 0.04 µM
  relative viability: 0.933
COR-L 105; first compound 0.1265 µM
  relative viability: 0.76
COR-L 105; first compound 0.4 µM
  relative viability: 0.762
COR-L 105; first compound 1.265 µM
  relative viability: 0.773
ChaGo-K-1; first compound 0.04 µM
  relative viability: 0.712
ChaGo-K-1; first compound 0.1265 µM
  relative viability: 0.651
ChaGo-K-1; first compound 0.4 µM
  relative viability: 0.56
ChaGo-K-1; first compound 1.265 µM
  relative viability: 0.536
EMC-BAC-2; first compound 0.04 µM
  relative viability: 1.19
EMC-BAC-2; first compound 0.1265 µM
  relative viability: 1.16
EMC-BAC-2; first compound 0.4 µM
  relative viability: 1.13
EMC-BAC-2; first compound 1.265 µM
  relative viability: 0.975
EPLC-272H; first compound 0.04 µM
  relative viability: 0.628
EPLC-272H; first compound 0.1265 µM
  relative viability: 0.367
EPLC-272H; first compound 0.4 µM
  relative viability: 0.21
EPLC-272H; first compound 1.265 µM
  relative viability: 0.0951
HCC-15; first compound 0.04 µM
  relative viability: 0.266
HCC-15; first compound 0.1265 µM
  relative viability: 0.384
HCC-15; first compound 0.4 µM
  relative viability: 0.265
HCC-15; first compound 1.265 µM
  relative viability: 0.192
HOP-62; first compound 0.04 µM
  relative viability: 0.989
HOP-62; first compound 0.1265 µM
  relative viability: 0.997
HOP-62; first compound 0.4 µM
  relative viability: 0.86
HOP-62; first compound 1.265 µM
  relative viability: 0.737
LXF-289; first compound 0.04 µM
  relative viability: 0.749
LXF-289; first compound 0.1265 µM
  relative viability: 0.614
LXF-289; first compound 0.4 µM
  relative viability: 0.484
LXF-289; first compound 1.265 µM
  relative viability: 0.171
NCI-H1666; first compound 0.04 µM
  relative viability: 0.976
NCI-H1666; first compound 0.1265 µM
  relative viability: 0.97
NCI-H1666; first compound 0.4 µM
  relative viability: 0.959
NCI-H1666; first compound 1.265 µM
  relative viability: 0.579
NCI-H1755; first compound 0.04 µM
  relative viability: 0.375
NCI-H1755; first compound 0.1265 µM
  relative viability: 0.644
NCI-H1755; first compound 0.4 µM
  relative viability: 0.695
NCI-H1755; first compound 1.265 µM
  relative viability: 0.574
NCI-H1915; first compound 0.04 µM
  relative viability: 0.784
NCI-H1915; first compound 0.1265 µM
  relative viability: 0.714
NCI-H1915; first compound 0.4 µM
  relative viability: 0.643
NCI-H1915; first compound 1.265 µM
  relative viability: 0.506
NCI-H1975; first compound 0.04 µM
  relative viability: 0.131
NCI-H1975; first compound 0.1265 µM
  relative viability: 0.302
NCI-H1975; first compound 0.4 µM
  relative viability: 0.199
NCI-H1975; first compound 1.265 µM
  relative viability: 0.338
NCI-H1993; first compound 0.04 µM
  relative viability: 0.912
NCI-H1993; first compound 0.1265 µM
  relative viability: 0.831
NCI-H1993; first compound 0.4 µM
  relative viability: 0.795
NCI-H1993; first compound 1.265 µM
  relative viability: 0.612
NCI-H2023; first compound 0.04 µM
  relative viability: 0.694
NCI-H2023; first compound 0.1265 µM
  relative viability: 1.01
NCI-H2023; first compound 0.4 µM
  relative viability: 0.75
NCI-H2023; first compound 1.265 µM
  relative viability: 0.34
NCI-H2085; first compound 0.04 µM
  relative viability: 0.441
NCI-H2085; first compound 0.1265 µM
  relative viability: 0.422
NCI-H2085; first compound 0.4 µM
  relative viability: 0.488
NCI-H2085; first compound 1.265 µM
  relative viability: 0.31
NCI-H2126; first compound 0.04 µM
  relative viability: 0.937
NCI-H2126; first compound 0.1265 µM
  relative viability: 0.955
NCI-H2126; first compound 0.4 µM
  relative viability: 0.796
NCI-H2126; first compound 1.265 µM
  relative viability: 0.619
NCI-H3122; first compound 0.04 µM
  relative viability: 0.0905
NCI-H3122; first compound 0.1265 µM
  relative viability: 0.0913
NCI-H3122; first compound 0.4 µM
  relative viability: 0.0809
NCI-H3122; first compound 1.265 µM
  relative viability: 0.0888
NCI-H322M; first compound 0.04 µM
  relative viability: 0.901
NCI-H322M; first compound 0.1265 µM
  relative viability: 0.934
NCI-H322M; first compound 0.4 µM
  relative viability: 0.846
NCI-H322M; first compound 1.265 µM
  relative viability: 0.664
NCI-H358; first compound 0.04 µM
  relative viability: 0.45
NCI-H358; first compound 0.1265 µM
  relative viability: 0.192
NCI-H358; first compound 0.4 µM
  relative viability: 0.249
NCI-H358; first compound 1.265 µM
  relative viability: 0.165
NCI-H441; first compound 0.04 µM
  relative viability: 0.332
NCI-H441; first compound 0.1265 µM
  relative viability: 0.431
NCI-H441; first compound 0.4 µM
  relative viability: 0.266
NCI-H441; first compound 1.265 µM
  relative viability: 0.298
UMC-11; first compound 0.04 µM
  relative viability: 0.919
UMC-11; first compound 0.1265 µM
  relative viability: 1.05
UMC-11; first compound 0.4 µM
  relative viability: 0.974
UMC-11; first compound 1.265 µM
  relative viability: 0.738
